In paper PMC9138545, “Incorporation of Oxidized Phenylalanine Derivatives into Insulin Signaling Relevant Proteins May Link Oxidative Stress to Signaling Conditions Underlying Chronic Insulin Resistance” (Biomedicines, 2022):
“Also recorded” adds a separate entry of the source.

Assays:
[1] = test system: GLUT4 and vimentin in podocytes; assay: Immunofluorescence of GLUT4 and vimentin in insulin-treated podocytes; assay type: cell-based, human; conditions: for GLUT4 membrane localization: 400 nmol/l insulin for 10 min
Experimental: (§1) The conditionally immortalized human podocyte cell line (provided by Moin Saleem, University of Bristol, UK) was cultured in RPMI1640 medium (R8756, Sigma Aldrich, Budapest, Hungary) supplemented with 10% heat-inactivated FBS (16170-078, Gibco, Budapest, Hungary), insulin-transferrin-selenium supplement (41400-045, Gibco), 100 U/mL penicillin, 0.1 mg/mL streptomycin (P4333, Sigma), and […] (equimolar to the original p-Tyr content of the medium) para-, meta-, or ortho-Tyr. The cells were grown at 33 °C 5% CO2, and when they reached 40–60% confluency they were transferred to 37 °C to differentiate. Following the thermoswitching, cells were kept on RPMI1640 medium containing 2% FBS, antibiotics, and different tyrosines. Before every treatment, cells were incubated in serum-deprived medium overnight.
(§2) In a 6-well plate, 104 cells were cultured on glass coverslips washed with alcohol and dried under UV light. The podocyte cells were grown in RPMI1640 medium supplemented with 10% heat-inactivated FBS at 33 °C, 5% CO2. When they reached 60% confluence, the medium was changed to RPMI1640 medium containing 2% FBS and 112.05 nM of the different tyrosine isoforms, then the plates were transferred to 37 °C, 5% CO2 to allow the cells to differentiate. The different tyrosine isoforms were added to the maintenance medium. The cells were serum deprived overnight, then incubated with 400 nmol/l insulin for 10 min. After removal of the medium, the coverslips were washed twice with PBS. The cells were fixed at room temperature in 2% paraformaldehyde and 4% sucrose for 8 min, then permeabilized using 0.3% Trion X-100 in 1xPBS for 20 min and blocked in 2.5% BSA for 45 min [45]. The primary antibody was diluted in 1xPBS, and the cells were incubated in it for 60 min in humid conditions. The antibodies we used were mouse anti-WT1 antibody (H-1) (1:100, Santa Cruz Biotechnology, Dallas, TX, USA), chicken anti-vimentin antibody (1:100, Abcam), rabbit anti-glucose transporter GLUT4 antibody (1:100, Abcam, Cambridge, UK), mouse Insulin Receptor Substrate-1 antibody (1:100, Invitrogen, Waltham, MA, USA), and rabbit anti-phospho-Insulin Receptor Substrate-1 (pTyr612) antibody (1:10, Sigma). Coverslips were washed in PBS three times for 5 min in PBS and incubated in the fluorophore-conjugated secondary antibodies anti-goat, anti-chicken, secondary antibody Alexa fluor 647, anti-rabbit Alexa fluor 350, and anti-mouse Alexa Fluor 488 (1:10, Invitrogen) for 60 min. Samples were then washed in PBS three times for 5 min and mounted in Vectashield (Vector Laboratories). Images were taken with a Nikon Eclipse Ti2 microscope.

3T3-L1 adipocytes = assay: HPLC of non-protein-bound intracellular tyrosines; assay type: cell-based, mouse; conditions: for cellular uptake of amino acids (non-protein-bound intracellular content): 5 or 25 mmol/L glucose, with or without 400 nmol/L insulin; for uptake by fat cells: time-dependent incubation
Experimental: Early passages of mouse embryo fibroblast (3T3-L1) (ATCC, Manassas, VA, US) were cultured in Dulbecco’s modified Eagle medium (DMEM, Sigma Aldrich, Budapest, Hungary, CAT number: D6046; Invitrogen, Waltham, MA, USA, CAT number: 41966-029) supplemented with 100 U/mL penicillin, 0.1 mg/mL streptomycin (Gibco, Budapest, Hungary, CAT number: 15070-063) and 10% heat-inactivated Fetal Bovine Serum (FBS, Gibco, CAT number: 16170-078), supplemented with 398 nM p-, m-, or o-Tyr (equimolar to the original p-Tyr content of the medium) purchased from Sigma (CAT number: para-Tyr: T8566, m-Tyr: T3629, o-Tyr: 93851). Media contained 25 or 5 mmol/L glucose (experiment dependent) pyruvate and L-glutamine. Cells were grown at 37 °C and 5% CO2. Adipocyte differentiation was achieved by DMEM supplemented with 10% FBS (Gibco, Csertex, Budapest, Hungary, CAT number: 10106-169) (FBS) and a […] insulin (Sigma Aldrich, Budapest, Hungary, CAT number: I 9278), […] isobuthylmethylxanthine (Sigma Aldrich, Budapest, Hungary, CAT number: I 5879), and 250 nmol/L dexamethasone (Sigma Aldrich, Budapest, Hungary, CAT number: 861871) containing cocktail. From day 4 onward, cultures were maintained in DMEM containing 1.5 μg/mL insulin and 10% FBS with a medium change every other day until experimental treatments were started. After 90% of the cell population reached the adipocyte phenotype, prior to all treatments, cells were incubated overnight in serum-deprived medium. Experimental treatment was performed in serum-deprived medium containing 200 or 400 nmol/L insulin, for 5 min.
To measure the total intracellular non-protein-bound tyrosine concentration, prior to the freezing of samples overnight at −70 °C to achieve cell lysis, 200 μL distilled water was added to each. After melting up, samples were centrifuged for 15 min at 15,000 rpm. A total of 200 µL of the supernatant was mixed with 200 µL of 60% trichloroacetic acid. After 30 min incubation on ice, samples were centrifuged again at 15,000 rpm for 15 min. Then, the supernatant was filtered and was diluted 5-fold and then 160 µL distilled water was added to 40 µL of filtrate, followed by the injection of the mixture onto the HPLC column.
The amounts of p-, o-, m-Tyr and Phe in the samples were determined by measuring their autofluorescence. Thus, no derivatization or staining was needed. Samples were measured on a Shimadzu Class 10 HPLC system equipped with an RF-10 AXL fluorescent detector (Shimadzu USA Manufacturing Inc., Canby, OR, USA). The mobile phase consisted of 1% sodium acetate and 1% acetic acid dissolved in water. The separation took place on a LiChroCHART 250-4 column (Merck KGaA, Darmstadt 64271, Germany) in an isocratic run. Wavelengths of 275 nm for excitation and 305 nm for emission were used to assess p-, o- and m-Tyr, while Phe was detected at 258 nm excitation and 288 nm emission wavelengths. Determination of the area under the curve (AUC) plus external standard calibration was used to calculate the precise concentrations of the amino acids.

p-IRS-1 in podocytes = assay: Immunofluorescence of p-IRS-1 in insulin-treated podocytes; assay type: cell-based, human; conditions: 400 nmol/l insulin for 10 min; for p-IRS-1 intensity: vs. p-Tyr
Experimental: as §1, §2

| Structure (SMILES) | vimentin filaments [1] | GLUT4 membrane localization [1] | cellular uptake of amino acids (non-protein-bound intracellular content) (3T3-L1 adipocytes) | uptake by fat cells (3T3-L1 adipocytes) | membrane translocation of IRS-1 / p-IRS-1 (p-IRS-1 in podocytes) | p-IRS-1 intensity (p-IRS-1 in podocytes) | membrane translocation of IRS-1 / p-IRS-1 (p-IRS-1 in podocytes; listed as o-Ty) |
| --- | --- | --- | --- | --- | --- | --- | --- |
| N[C@@H](Cc1cccc(O)c1)C(=O)O [m-Tyr, meta-tyrosine] | thicker vimentin filaments | slightly visible | continuous uptake of amino acids which was independent of glucose concentration (5 or 25 mmol/L) and the presence of insulin | Taken Up by Fat Cells within Several Minutes | absent; also recorded: not characteristic | lower |  |
| NC(Cc1ccccc1O)C(=O)O (stereo not shown) [o-Tyr, ortho-tyrosine] | thicker vimentin filaments | not characteristic in o-Tyr treated cells, which shows rather a perinuclear localization | continuous uptake of amino acids which was independent of glucose concentration (5 or 25 mmol/L) and the presence of insulin | Taken Up by Fat Cells within Several Minutes | not characteristic | lower; also recorded: the signal almost disappears | absent |
